Test results reported in US20250034167A1, “HETEROCYCLIC COMPOUNDS AND METHODS OF USE” (AMGEN INC., priority 2021, published 2025).

Assays:
[1] = target: His-tagged KRAS G12D protein (Homo sapiens, UniProt P01116, G12D); assay: biochemical
[2] = test system: Phosphorylation of ERK1/2 in AsPC-1 cells; assay: Phospho-ERK1/2 MSD Assay; assay type: cell-based; details: Homo sapiens, ASPC1, 2 h, read-out: 2 h p-ERK (AsPC-1 cells), IC50, AsPC-1 cells, 2 h compound treatment
Protocol: Sixteen hours prior to compound treatment, AsPC-1 cells were seeded in 96-well cell culture plates at a density of 25,000 cells/well and incubated at 37° C., 5% CO2. A compound dose-response titration was diluted in growth media, added to appropriate wells of a cell culture plate, and then incubated at 37° C., 5% CO2 for 2 hours.

Sequence of His-tagged KRAS G12D protein (P01116 1-188 isoform P01116-2 G12D): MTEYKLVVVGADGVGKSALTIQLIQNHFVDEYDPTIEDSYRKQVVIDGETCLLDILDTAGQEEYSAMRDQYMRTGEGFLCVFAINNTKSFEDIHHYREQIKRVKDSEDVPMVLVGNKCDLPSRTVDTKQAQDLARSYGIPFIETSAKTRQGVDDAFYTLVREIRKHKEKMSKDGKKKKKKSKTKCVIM

IC50 [1]	IC50 [2]	Compound
4 nM	22 nM	CCC1CCCc2cc(O)cc(-c3ncc4c(N5CCC[C@@](C)(O)C5)nc(OC[C@@]56CCCN5C[C@H](F)C6)nc4c3F)c21 (single isomer, unassigned) [Example 173]
1 nM	165 nM	CCc1c(F)ccc2cc(O)cc(-c3ncc4c(N5CCC[C@@H](S(N)(=O)=O)C5)nc(OC[C@@]56CCCN5C[C@H](F)C6)nc4c3F)c12 [Example 1, (R)-1-(7-(8-Ethyl-7-fluoro-3-hydroxynaphthalen-1-yl)-8-fluoro-2-(((2R,7aS)-2-fluorotetrahydro-1H-pyrrolizin-7a(5H)-yl)methoxy)pyrido[4,3-d]pyrimidin-4-yl)piperidine-3-sulfonamide]
1 nM	115 nM	CCc1c(F)ccc2cc(O)cc(-c3ncc4c(N5CCCCCC5)nc(OC[C@@]56CCCN5C[C@H](F)C6)nc4c3F)c12 [Example 2, 4-(4-(Azepan-1-yl)-8-fluoro-2-(((2R,7aS)-2-fluorotetrahydro-1H-pyrrolizin-7a(5H)-yl)methoxy)pyrido[4,3-d]pyrimidin-7-yl)-5-ethyl-6-fluoronaphthalen-2-ol]
9 nM	> 10000 nM	CCc1c(F)ccc2cc(O)cc(-c3ncc4c(N5CCC(C(N)=O)C5)nc(OC[C@@]56CCCN5C[C@H](F)C6)nc4c3F)c12 (stereo partly drawn) [Example 3, 1-(7-(8-Ethyl-7-fluoro-3-hydroxynaphthalen-1-yl)-8-fluoro-2-(((2R,7aS)-2-fluorotetrahydro-1H-pyrrolizin-7a(5H)-yl)methoxy)pyrido[4,3-d]pyrimidin-4-yl)pyrrolidine-3-carboxamide]
21 nM	> 10000 nM	CCc1c(F)ccc2cc(O)cc(-c3ncc4c(N5CCC[C@H]5C(N)=O)nc(OC[C@@]56CCCN5C[C@H](F)C6)nc4c3F)c12 [Example 4, (S)-1-(7-(8-Ethyl-7-fluoro-3-hydroxynaphthalen-1-yl)-8-fluoro-2-(((2R,7aS)-2-fluorotetrahydro-1H-pyrrolizin-7a(5H)-yl)methoxy)pyrido[4,3-d]pyrimidin-4-yl)pyrrolidine-2-carboxamide]
55 nM	> 10000 nM	CCc1c(F)ccc2cc(O)cc(-c3ncc4c(N5CCC(C(N)=O)CC5)nc(OC[C@@]56CCCN5C[C@H](F)C6)nc4c3F)c12 [Example 6, 1-(7-(8-Ethyl-7-fluoro-3-hydroxynaphthalen-1-yl)-8-fluoro-2-(((2R,7aS)-2-fluorotetrahydro-1H-pyrrolizin-7a(5H)-yl)methoxy)pyrido[4,3-d]pyrimidin-4-yl)piperidine-4-carboxamide]
37 nM	> 10000 nM	CCc1c(F)ccc2cc(O)cc(-c3ncc4c(N5CCC[C@H](S(N)(=O)=O)C5)nc(OC[C@@]56CCCN5C[C@H](F)C6)nc4c3F)c12 [Example 7, (S)-1-(7-(8-Ethyl-7-fluoro-3-hydroxynaphthalen-1-yl)-8-fluoro-2-(((2R,7aS)-2-fluorotetrahydro-1H-pyrrolizin-7a(5H)-yl)methoxy)pyrido[4,3-d]pyrimidin-4-yl)piperidine-3-sulfonamide]
82 nM	> 10000 nM	CCc1c(F)ccc2cc(O)cc(-c3ncc4c(N5CC(CC(N)=O)C5)nc(OC[C@@]56CCCN5C[C@H](F)C6)nc4c3F)c12 [Example 8, 2-(1-(7-(8-Ethyl-7-fluoro-3-hydroxynaphthalen-1-yl)-8-fluoro-2-(((2R,7aS)-2-fluorotetrahydro-1H-pyrrolizin-7a(5H)-yl)methoxy)pyrido[4,3-d]pyrimidin-4-yl)azetidin-3-yl)acetamide]
5 nM	1340 nM	CCc1c(F)ccc2cc(O)cc(-c3ncc4c(N5CC6CC(O)C6C5)nc(OC[C@@]56CCCN5C[C@H](F)C6)nc4c3F)c12 (stereo partly drawn) [Example 9, 3-(7-(8-Ethyl-7-fluoro-3-hydroxynaphthalen-1-yl)-8-fluoro-2-(((2R,7aS)-2-fluorotetrahydro-1H-pyrrolizin-7a(5H)-yl)methoxy)pyrido[4,3-d]pyrimidin-4-yl)-3-azabicyclo[3.2.0]heptan-6-ol]
3 nM	> 10000 nM	CCc1c(F)ccc2cc(O)cc(-c3ncc4c(N5C[C@@H](O)[C@@H](O)C5)nc(OC[C@@]56CCCN5C[C@H](F)C6)nc4c3F)c12 [Example 11, (3S,4R)-1-(7-(8-Ethyl-7-fluoro-3-hydroxynaphthalen-1-yl)-8-fluoro-2-(((2R,7aS)-2-fluorotetrahydro-1H-pyrrolizin-7a(5H)-yl)methoxy)pyrido[4,3-d]pyrimidin-4-yl)pyrrolidine-3,4-diol]
2 nM	377 nM	Oc1cc(-c2ncc3c(N4CCC[C@@H](O)C4)nc(OC[C@@]45CCCN4C[C@H](F)C5)nc3c2F)c2c(F)c(F)ccc2c1 [Example 12, (R)-1-(7-(7,8-Difluoro-3-hydroxynaphthalen-1-yl)-8-fluoro-2-(((2R,7aS)-2-fluorotetrahydro-1H-pyrrolizin-7a(5H)-yl)methoxy)pyrido[4,3-d]pyrimidin-4-yl)piperidin-3-ol]
2 nM	107 nM	CCc1cccc2cc(O)cc(-c3ncc4c(N5CCC[C@@H](O)C5)nc(OC[C@@]56CCCN5C[C@H](F)C6)nc4c3F)c12 [Example 13, (R)-1-(7-(8-Ethyl-3-hydroxynaphthalen-1-yl)-8-fluoro-2-(((2R,7aS)-2-fluorotetrahydro-1H-pyrrolizin-7a(5H)-yl)methoxy)pyrido[4,3-d]pyrimidin-4-yl)piperidin-3-ol]
38 nM	3180 nM	CCc1c(F)ccc2cc(O)cc(-c3ncc4c(N5C[C@H]6CC[C@@H]5C(O)C6)nc(OC[C@@]56CCCN5C[C@H](F)C6)nc4c3F)c12 (stereo partly drawn) [Example 17, (1R,4S)-2-(7-(8-Ethyl-7-fluoro-3-hydroxynaphthalen-1-yl)-8-fluoro-2-(((2R,7aS)-2-fluorotetrahydro-1H-pyrrolizin-7a(5H)-yl)methoxy)pyrido[4,3-d]pyrimidin-4-yl)-2-azabicyclo[2.2.2]octan-6-ol]
3 nM	105 nM	Oc1cc(-c2ncc3c(N4CC5CC(O)C(C5)C4)nc(OC[C@@]45CCCN4C[C@H](F)C5)nc3c2F)c2c(F)c(F)ccc2c1 (stereo partly drawn) [Example 18, 3-(7-(7,8-Difluoro-3-hydroxynaphthalen-1-yl)-8-fluoro-2-(((2R,7aS)-2-fluorotetrahydro-1H-pyrrolizin-7a(5H)-yl)methoxy)pyrido[4,3-d]pyrimidin-4-yl)-3-azabicyclo[3.2.1]octan-6-ol]
4 nM	297 nM	CCc1c(F)ccc2cc(O)cc(-c3ncc4c(N5CCCC(CO)(CCl)C5)nc(OC[C@@]56CCCN5C[C@H](F)C6)nc4c3F)c12 (stereo partly drawn) [Example 22, 4-(4-(3-(Chloromethyl)-3-(hydroxymethyl)piperidin-1-yl)-8-fluoro-2-(((2R,7aS)-2-fluorotetrahydro-1H-pyrrolizin-7a(5H)-yl)methoxy)pyrido[4,3-d]pyrimidin-7-yl)-5-ethyl-6-fluoronaphthalen-2-ol]
17 nM	991 nM	C[C@@]1(O)CCCN(c2nc(OC[C@@]34CCCN3C[C@H](F)C4)nc3c(F)c(-c4cccc5ccc(F)c(F)c45)ncc23)C1 [Example 49, (R)-1-(7-(7,8-Difluoronaphthalen-1-yl)-8-fluoro-2-(((2R,7aS)-2-fluorotetrahydro-1H-pyrrolizin-7a(5H)-yl)methoxy)pyrido[4,3-d]pyrimidin-4-yl)-3-methylpiperidin-3-ol]
1 nM	8 nM	C#Cc1c(F)ccc2cc(O)cc(-c3ncc4c(N5CCCC(C)(O)C5)nc(OCC56CCCN5CC(F)C6)nc4c3F)c12 [Example 52, (R)-1-(7-(8-Ethynyl-7-fluoro-3-hydroxynaphthalen-1-yl)-8-fluoro-2-(((2R,7aS)-2-fluorotetrahydro-1H-pyrrolizin-7a(5H)-yl)methoxy)pyrido[4,3-d|pyrimidin-4-yl)-3-methylpiperidin-3-ol]
1 nM	33 nM	C[C@@]1(O)CCCN(c2nc(OC[C@@]34CCCN3C[C@H](F)C4)nc3c(F)c(-c4cc(O)cc5ccc(F)c(Cl)c45)ncc23)C1 [Example 56, (R)-1-(7-(8-Chloro-7-fluoro-3-hydroxynaphthalen-1-yl)-8-fluoro-2-(((2R,7aS)-2-fluorotetrahydro-1H-pyrrolizin-7a(5H)-yl)methoxy)pyrido[4,3-d]pyrimidin-4-yl)-3-methylpiperidin-3-ol]
2 nM	115 nM	C[C@@]1(O)CCCN(c2nc(OC[C@@]34CCCN3C[C@H](F)C4)nc3c(F)c(-c4cc(O)cc5cccc(F)c45)ncc23)C1 [Example 57, (R)-1-(8-Fluoro-7-(8-fluoro-3-hydroxynaphthalen-1-yl)-2-(((2R,7aS)-2-fluorotetrahydro-1H-pyrrolizin-7a(5H)-yl)methoxy)pyrido[4,3-d]pyrimidin-4-yl)-3-methylpiperidin-3-ol]
1 nM	9 nM	CCc1cccc2cc(O)cc(-c3ncc4c(N5CCC[C@@](C)(O)C5)nc(OC[C@@]56CCCN5C[C@H](F)C6)nc4c3F)c12 [Example 58, (R)-1-(7-(8-Ethyl-3-hydroxynaphthalen-1-yl)-8-fluoro-2-(((2R,7aS)-2-fluorotetrahydro-1H-pyrrolizin-7a(5H)-yl)methoxy)pyrido[4,3-d]pyrimidin-4-yl)-3-methylpiperidin-3-ol]
2 nM	330 nM	C[C@@]1(O)CCCN(c2nc(OC[C@@]34CCCN3C[C@H](F)C4)nc3c(F)c(-c4cc(O)cc5ccccc45)ncc23)C1 [Example 60, (R)-1-(8-Fluoro-2-(((2R,7aS)-2-fluorotetrahydro-1H-pyrrolizin-7a(5H)-yl)methoxy)-7-(3-hydroxynaphthalen-1-yl)pyrido[4,3-d]pyrimidin-4-yl)-3-methylpiperidin-3-ol]
